Data from publication PMC10208570, “Peptidomimetic antibiotics disrupt the lipopolysaccharide transport bridge of drug-resistant Enterobacteriaceae” (Science Advances, 2023).
Converted amounts (≈) assume the structure as drawn. Read-outs that look alike come from different tables or passages of the source. Where a SMILES comes first, the peptide text is derived from it. Bridges are numbered along the chain shown (N, C = ends). [ ]: non-standard residue; d: D form. The star is where a group is joined. Val(Nα-amidino) = CC(C)[C@H](NC(=N)N)C(=O)*; Hyp = O=C(O)[C@@H]1C[C@@H](O)CN1; Pen = CC(C)(S)[C@H](N)C(=O)O; dDab = NCC[C@@H](N)C(=O)O; Dab = NCC[C@H](N)C(=O)O

Assays:
Plasma protein binding [1] = type: in vitro ADME, human; settings: mass balance method, ultrafiltration 30-kDa cutoff; pooled human plasma adjusted to pH 7.5; 10 mg/liter; 30 min at 37°C; biological replicates; read-out: Plasma protein binding (% bound) Human (converted)
Procedure: (§1) After ultrafiltration, protein binding was determined by subtracting the percentage of compound in ultrafiltrate from the total amount of compound in spiked plasma (table S4A).

Moraxella catarrhalis = settings: CLSI microdilution method; LptA sequence identity 28
Procedure: (§2) MIC assays [Clinical and Laboratory Standards Institute (CLSI) methodology] and serial passage studies were performed as described by Luther et al. ([6]). […] Resistant mutants were isolated, and their MIC values were determined and sent to Microbes NG (Birmingham, United Kingdom) for whole-genome sequencing and bioinformatic analysis.

Providencia stuartii = settings: CLSI microdilution method; LptA sequence identity 55
Procedure: as §2

Klebsiella pneumoniae = settings: CLSI microdilution method; LptA sequence identity 88
Procedure: as §2

Hafnia alvei = settings: CLSI microdilution method; LptA sequence identity 72
Procedure: as §2

Enterobacter aerogenes = settings: CLSI microdilution method; LptA sequence identity 88
Procedure: as §2

human red blood cells = experiment: Haemolysis; type: cell-based; settings: PBS-washed human red blood cells; 1 h at 200 mg/liter, 37°C; OD 540 nm; versus 100% lysis control 2.5% Triton X-100; biological replicates
Procedure: To test their hemolytic potential, compounds were incubated in the presence of phosphate-buffered saline (PBS)–washed human red blood cells. After 1-hour incubation at 200 mg/liter and 37°C, the samples were centrifuged (3220g), the supernatants were diluted in Dulbecco’s PBS, and optical density at 540 nm was determined. The hemolysis induced by the compound was calculated versus a 100% lysis control prepared with 2.5% Triton X-100 (table S4A).

[2] = Tolerability (single day, IV bolus q12h); type: in vivo, CD-1 mice; settings: for Tolerability (IV bolus, q12h): mice died: single day
Procedure: (§3) Two different study designs were used to determine the potential toxicity of these compounds, when given BID via intravenous bolus (injection) 12 hours apart to CD-1 mice. In the first type of study, male mice were dosed on a single day at three escalating dose levels (three mice per group), while the second type of study male mice (nine mice per group) were dosed for seven consecutive days with the same administration regimen (q12h). […] Detailed clinical observations were conducted up to at least 3 hours after the first daily dosing and up to at least 1 hour after the second daily dosing. In addition, the Irwin battery of tests was used to assess the mice neurobiological and physiological state during the single day study at 30, 60, 120, 180, and 240 min after the first administration. The following parameters were included in the observations: occurrence of abnormal gait, catalepsy, piloerection, abnormal respiration, increase or decrease in spontaneous activity, spontaneous activity following audible stimuli (tapping on side of cage), touch response, and body tonus. Any additional symptoms observed were also reported.

in vitro = type: cell-based; settings: human
Procedure: The cytotoxicity of compounds was determined by determining the number of viable cells using the Sigma Cell Counting Kit-8 (WST-8). HeLa cells were incubated at 37°C and 5% CO2 for 24 hours, after which the medium was replaced with fresh medium containing dilutions of compounds. […]

[3] = system: panel of 121 Enterobacteriaceae including CRE, MDR, and XDR isolates; experiment: organism not typed; settings: for MIC50 (n=121): CLSI microdilution method, 121 isolates
Procedure: as §2

[4] = system: E. coli ATCC 25922 (parent / WT); experiment: microbe, parasite or virus in culture; settings: for MIC E. coli ATCC 25922 Parent: CLSI method, parent strain
In short: (§4)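 Following CLSI procedures, minimum inhibitory concentrations are measured; serial passage experiments select resistant mutants, whose MICs are determined before whole-genome sequencing and bioinformatic analysis.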

[5] = system: K. pneumoniae NCTC 13443 (NDM-1) (parent / WT); experiment: microbe, parasite or virus in culture; settings: for MIC K. pneumoniae NCTC 13443 (NDM-1) Parent: CLSI method, parent strain
In short: as §4

[6] = system: E. coli ATCC 25922 LptA Q62L mutant; experiment: microbe, parasite or virus in culture; settings: for MIC E. coli ATCC 25922 Q62L mutant: CLSI method, clone harboring LptA Q62L
In short: as §4

[7] = system: K. pneumoniae ATCC 43816 (parent / WT); experiment: microbe, parasite or virus in culture; settings: ATCC 43816
In short: as §4

[8] = system: K. pneumoniae NCTC 13443 (NDM-1) LptA Q62L mutant; experiment: microbe, parasite or virus in culture; settings: for MIC K. pneumoniae NCTC 13443 (NDM-1) Q62L mutant: CLSI method, clone harboring LptA Q62L
In short: as §4

LptAm = target: T1, LptAm (Escherichia coli, UniProt P0ADV1); experiment: biochemical; type: binding, E. coli
T1 construct: His6-GB1 (N, cleaved yes); made in house; host or cells: E. coli BL21 (DE3)

LptAmQ62L = target: T2, LptAmQ62L (Escherichia coli, UniProt P0ADV1, Q62L); experiment: biochemical; type: binding, E. coli
T2 construct: His6-GB1 (N, cleaved yes); made in house; host or cells: E. coli BL21 (DE3)

Plasma protein binding [9] = type: in vitro ADME, mouse; settings: mass balance method, ultrafiltration 30-kDa cutoff; pooled mouse plasma adjusted to pH 7.5; 10 mg/liter; 30 min at 37°C; biological replicates; read-out: Plasma protein binding (% bound) Mouse (converted)
Procedure: as §1

[10] = 7-day repeated dosing (IV bolus q12h); type: in vivo, CD-1 mice; settings: mice, intravenous BID 15 mg/kg per dose, seven consecutive days
Procedure: as §3

T1 sequence (P0ADV1 28-159): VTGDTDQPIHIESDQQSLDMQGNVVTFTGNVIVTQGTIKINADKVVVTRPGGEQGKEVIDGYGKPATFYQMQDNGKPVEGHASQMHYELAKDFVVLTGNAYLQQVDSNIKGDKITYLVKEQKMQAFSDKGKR
T2 sequence (P0ADV1 28-159 Q62L): as the sequence (P0ADV1 28-159) above, with Q35L counted along it

Row | SMILES | fraction unbound at 30 min, 10 mg/liter (Plasma protein binding [1]) | MIC Moraxella catarrhalis (Moraxella catarrhalis) [µg/mL] | MIC Providencia stuartii (Providencia stuartii) [µg/mL] | MIC Klebsiella pneumoniae (Klebsiella pneumoniae) [µg/mL] | MIC Hafnia alvei (Hafnia alvei) [µg/mL] | MIC Enterobacter aerogenes (Enterobacter aerogenes) [µg/mL] | Haemolysis % at 0.2 g/L (human red blood cells) [%] | IC50 at 48 h (in vitro) [µM] | MIC50 (n=121) [3] [µg/mL] | MIC E. coli ATCC 25922 Parent [4] [micrograms per milliliter] | MIC K. pneumoniae NCTC 13443 (NDM-1) Parent [5] [micrograms per milliliter] | MIC E. coli ATCC 25922 Q62L mutant [6] [micrograms per milliliter] | MIC K. pneumoniae ATCC 43816 Parent [7] [micrograms per milliliter] | MIC K. pneumoniae NCTC 13443 (NDM-1) Q62L mutant [8] [micrograms per milliliter] | IC50 (LptAm) [µM] | Ki (LptAm) [µM] | IC50 (LptAmQ62L) [µM] | Ki (LptAmQ62L) [µM] | fraction unbound at 30 min, 10 mg/liter (Plasma protein binding [9]) | Tolerability in repeat dose safety study [10] | further results
1 | CC[C@H](C)[C@H](NC(=O)[C@@H]1C[C@@H](O)CN1C(=O)[C@@H](N)C(C)C)C(=O)N[C@H](C(=O)N[C@@H](Cc1ccc(O)cc1)C(=O)N[C@@H]1C(=O)N[C@@H](CC(N)=O)C(=O)N[C@@H](CCCNC(=N)N)C(=O)N[C@@H](CCN)C(=O)N[C@@H]([C@@H](C)O)C(=O)N[C@H](CCN)C(=O)N[C@@H](CCCCN)C(=O)N[C@H](C(=O)N[C@@H](CCN)C(=O)N[C@@H](CCCNC(=N)N)C(=O)N[C@@H](Cc2ccc(O)cc2)C(=O)O)CSSC1(C)C)[C@@H](C)O [Compound 6] (H-V[Hyp]ITY[Pen]NR[Dab]T[dDab]KC[Dab]RY-OH; disulfide 6-13) | 0.38 | > 8 | > 8 | 0.13 (≈ 0.0663 µM) | 2 (≈ 1.02 µM) | 0.5 (≈ 0.255 µM) | 0 | 1160 | 0.25 (≈ 0.128 µM) | 0.125 | 2 | 2 | 0.25 | >8 | 0.0169 ± 0.001 | 0.0028 ± 0.0002 | 0.0146 ± 0.0025 | 0.0099 ± 0.0017 | 0.11 | well tolerated with no adverse events or detectable kidney toxicity | Tolerability (IV bolus, q12h): mice died ([2]; at 40 mg/kg/day q12h): 0/3; MIC90 ([3]; panel of 121 Enterobacteriaceae including CRE, MDR, and XDR isolates): 1 µg/mL (≈ 0.51 µM)
2 | CC[C@H](C)[C@H](NC(=O)[C@@H]1C[C@@H](O)CN1C(=O)[C@@H](NC(=N)N)C(C)C)C(=O)N[C@H](C(=O)N[C@@H](Cc1ccc(O)cc1)C(=O)N[C@@H]1C(=O)N[C@@H](CC(N)=O)C(=O)N[C@@H](CCCNC(=N)N)C(=O)N[C@@H](CCN)C(=O)N[C@@H]([C@@H](C)O)C(=O)N[C@H](CCN)C(=O)N[C@@H](CCCCN)C(=O)N[C@H](C(=O)N[C@@H](CCN)C(=O)N[C@@H](CCCNC(=N)N)C(=O)N[C@@H](Cc2ccc(O)cc2)C(=O)O)CSSC1(C)C)[C@@H](C)O [Compound 7] ({Val(Nα-amidino)}-[Hyp]ITY[Pen]NR[Dab]T[dDab]KC[Dab]RY-OH; disulfide 5-12) | 0.19 | > 8 | > 8 | 0.25 (≈ 0.125 µM) | 4 (≈ 2 µM) | 1 (≈ 0.5 µM) | 0 | 456 | 0.25 (≈ 0.125 µM) | 0.063 | 0.5 | 4 | 0.125 | >8 | 0.0117 ± 0.0005 | 0.0019 ± 0.0001 | 0.0254 ± 0.0046 | 0.0172 ± 0.0031 | 0.06 | well tolerated with no adverse events or detectable kidney toxicity | Tolerability (IV bolus, q12h): mice died ([2]; at 30 mg/kg/day q12h): 0/3; Tolerated dose, intravenous BID ([2]; mice, intravenous, twice a day (q12h)): up to 30 mg/kg per day; MIC Escherichia coli ATCC 25922 WT ([4]; Table S9 panel, WT): 0.125 µg/mL (≈ 0.0625 µM); MIC Klebsiella pneumoniae NCTC 13443 WT ([5]; Table S9 panel, WT): 1 µg/mL (≈ 0.5 µM); MIC Escherichia coli ATCC 25922 LptA Q62L (7x) ([6]; Table S9 panel): 2 µg/mL (≈ 0.999 µM); MIC Klebsiella pneumoniae ATCC 43816 WT [7]: 0.25 µg/mL (≈ 0.125 µM); MIC Klebsiella pneumoniae NCTC 13443 LptA Q62L (5x) ([8]; Table S9 panel): > 16 µg/mL
